Results from patent US11006626B2, “Compounds for protection of cells” (Sulfateq B.V., priority 2012, dated 2021).

Legend:
[1] = system: PRP platelets; assay: PRP platelets stored at 4° C. with Sul 136, number of cells that survived; format: cell-based; conditions: for number of cells in % relative to the number of cells at time 0: 4° C.
Procedure: […] The blood platelets with the compound were then stored at 4° C.
(§1) and tested as follows: • The color and coagulation properties were visually analysed. • The thrombocyte cells that survived were counted and it was evaluated whether the thrombocytes were aggregated. • It was evaluated if the thrombocytes still were able to function after stimulation by the addition of ADP or under influence of collagen in a 96 well plate. • The adhesion was evaluated, meaning the ability of the platelets to bind collagen in a 6 well plate preincubated with collagen. • Via an ELISA assay, it was evaluated whether thromboxane was secreted from the platelets. Thromboxane facilitates aggregation and is produced by activated blood platelets.
PRP platelets were tested with the addition of Sul 136. […] The number of cells are given in % relative to the number of cells at time 0. 66% of the platelets stored at room temperature survived after 216 hours. Only 42.3% of the cells stored at 4° C. survived after 216 hours.

[2] = system: PRP platelets; assay: PRP platelets stored with Sul 136, aggregation after stimulation with collagen; format: cell-based; design: key: +means that the cells show aggregation; ++means strong aggregation, these platelets can thus be activated upon stimulation; −means no aggregation upon stimulation
Procedure: as §1, with “and tested as follows:” left out
(+means that the cells show aggregation, ++means strong aggregation, these platelets can thus be activated upon stimulation, −means no aggregation upon stimulation)

In the case of `Cc1c(C)c2c(c(C)c1O)CCC(C)(C(=O)N1CCN(CC(=O)O)CC1)O2` (racemic) [SUL - 136, 2-(4-(6-hydroxy-2,5,7,8-tetramethylchroman-2-carbonyl)piperazin-1-yl)acetic acid], the “number of cells in % relative to the number of cells at time 0” value ([1]; 10 min 0.001 mM, 0 h) is reported as 100%, the “number of cells in % relative to the number of cells at time 0” value ([1]; 10 min 0.001 mM, 72 h) is reported as 58.9% and the “number of cells in % relative to the number of cells at time 0” value ([1]; 10 min 0.001 mM, 216 h) is reported as 55.1%. For the same compound, the “number of cells in % relative to the number of cells at time 0” value ([1]; 10 min 0.01 mM, 0 h) was 100%, the “number of cells in % relative to the number of cells at time 0” value ([1]; 10 min 0.01 mM, 72 h) was 66.0% and the “number of cells in % relative to the number of cells at time 0” value ([1]; 10 min 0.01 mM, 216 h) was 52.1%. For the same compound, the “number of cells in % relative to the number of cells at time 0” value ([1]; 10 min 0.1 mM, 0 h) was 100%, the “number of cells in % relative to the number of cells at time 0” value ([1]; 10 min 0.1 mM, 72 h) was 55.9% and the “number of cells in % relative to the number of cells at time 0” value ([1]; 10 min 0.1 mM, 216 h) was 50.8%. The “number of cells in % relative to the number of cells at time 0” value ([1]; 10 min 1 mM, 0 h) was 100%, the “number of cells in % relative to the number of cells at time 0” value ([1]; 10 min 1 mM, 72 h) was 59.1% and the “number of cells in % relative to the number of cells at time 0” value ([1]; 10 min 1 mM, 216 h) was 59.3%. The “number of cells in % relative to the number of cells at time 0” value ([1]; 10 min 10 mM, 0 h) was 100%, the “number of cells in % relative to the number of cells at time 0” value ([1]; 10 min 10 mM, 72 h) was 64.8% and the “number of cells in % relative to the number of cells at time 0” value ([1]; 10 min 10 mM, 216 h) was 47.9%. For the same compound, the “number of cells in % relative to the number of cells at time 0” value ([1]; 60 min 0.001 mM, 0 h) was 100%, the “number of cells in % relative to the number of cells at time 0” value ([1]; 60 min 0.001 mM, 72 h) was 83.8% and the “number of cells in % relative to the number of cells at time 0” value ([1]; 60 min 0.001 mM, 216 h) was 86.1%. For the same compound, the “number of cells in % relative to the number of cells at time 0” value ([1]; 60 min 0.01 mM, 0 h) was 100%, the “number of cells in % relative to the number of cells at time 0” value ([1]; 60 min 0.01 mM, 72 h) was 82.9% and the “number of cells in % relative to the number of cells at time 0” value ([1]; 60 min 0.01 mM, 216 h) was 94.8%. The “number of cells in % relative to the number of cells at time 0” value ([1]; 60 min 0.1 mM, 0 h) was 100%, the “number of cells in % relative to the number of cells at time 0” value ([1]; 60 min 0.1 mM, 72 h) was 76.3% and the “number of cells in % relative to the number of cells at time 0” value ([1]; 60 min 0.1 mM, 216 h) was 77.6%. The “number of cells in % relative to the number of cells at time 0” value ([1]; 60 min 1 mM, 0 h) was 100%, the “number of cells in % relative to the number of cells at time 0” value ([1]; 60 min 1 mM, 72 h) was 29.9% and the “number of cells in % relative to the number of cells at time 0” value ([1]; 60 min 1 mM, 216 h) was 62.9%. For the same compound, the “number of cells in % relative to the number of cells at time 0” value ([1]; 60 min 10 mM, 0 h) was 100%, the “number of cells in % relative to the number of cells at time 0” value ([1]; 60 min 10 mM, 72 h) was 51.8% and the “number of cells in % relative to the number of cells at time 0” value ([1]; 60 min 10 mM, 216 h) was 43.4%. For the same compound, the “platelets survived after storage” value ([1]; storage of 72 and 216 hours at 4° C., vs. no compound) was “substantial more platelets survived”, the “aggregation of the PRP platelets after stimulation with collagen” value (“aggregation of the PRP platelets” for short) ([2]; 10 min 0.001 mM, 0 h) was “+” and the “aggregation of the PRP platelets” value ([2]; 10 min 0.01 mM, 0 h) was “+”. The “aggregation of the PRP platelets” value ([2]; 10 min 0.1 mM, 0 h) was “+”, the “aggregation of the PRP platelets” value ([2]; 10 min 1 mM, 0 h) was “+” and the “aggregation of the PRP platelets” value ([2]; 10 min 10 mM, 0 h) was “++”. For the same compound, the “aggregation of the PRP platelets” value ([2]; 10 min 10 mM, 24 h) was “++”, the “aggregation of the PRP platelets” value ([2]; 10 min 10 mM, 48 h) was “++” and the “aggregation of the PRP platelets” value ([2]; 10 min 10 mM, 72 h) was “++”. For the same compound, the “aggregation of the PRP platelets” value ([2]; 10 min 10 mM, 216 h) was “++”, the “aggregation of the PRP platelets” value ([2]; 60 min 0.001 mM, 0 h) was “+” and the “aggregation of the PRP platelets” value ([2]; 60 min 0.01 mM, 0 h) was “+”. For the same compound, the “aggregation of the PRP platelets” value ([2]; 60 min 0.1 mM, 0 h) was “+”, the “aggregation of the PRP platelets” value ([2]; 60 min 1 mM, 0 h) was “+” and the “aggregation of the PRP platelets” value ([2]; 60 min 10 mM, 0 h) was “++”. The “aggregation of the PRP platelets” value ([2]; 60 min 10 mM, 24 h) was “++”, the “aggregation of the PRP platelets” value ([2]; 60 min 10 mM, 48 h) was “++” and the “aggregation of the PRP platelets” value ([2]; 60 min 10 mM, 72 h) was “++”.
